# Values joined by “and” are separate entries in the source; they are usually repeats but may differ in a detail not shown here. Identical values can stand only once. “Also recorded” adds a separate entry of the source. Like-named read-outs stand apart in the source and are kept apart here.
# How the values were obtained:
# [1] = tested on: HSV-1 KOS; assay: HSV-1 infectivity plaque assay, virions pretreated with compound, Vero cells; format: cell-based, herpes simplex virus type 1; conditions: for potency compared with dUY11: infections of cultured cells
# [2] = tested on: Vero cells; assay: Cytotoxic/cytostatic effects, trypan blue exclusion cell counts; conditions: for cytotoxicity (in words): cultured cells
# [3] = tested on: HSV-1; assay: HSV-1 DNA replication, Southern blot of intracellular viral DNA in infected Vero cells; format: cell-based, herpes simplex virus type 1; conditions: 2 μM, 5 PFU/cell, 1, 5, 18, 24 hpi
# Description: To identify whether the amphipathic nucleoside derivatives inhibited either viral DNA replication or viral gene expression, the ability of the amphipathic nucleoside derivatives to inhibit the accumulation of HSV-1 DNA was tested.
# [4] = tested on: HSV-1; assay: Release of HSV-1 DNA/virions by infected Vero cells, Southern blot of extracellular viral DNA; format: cell-based, herpes simplex virus type 1; conditions: 2 μM, 1, 5, 18, 24 hpi
# [5] = tested on: HSV-1 KOS; assay: HSV-1 infectivity plaque assay, pretreated virions, Human Foreskin Fibroblasts; format: cell-based, herpes simplex virus type 1; conditions: HFF
# From the text: FIG. 8 is a line graph showing HSV-1 infectivity plotted against concentration of dUY11. […] As expected, dUY11 treated virions were equally non-infectious for Vero cells or Human Foreskin Fibroblasts.
# [6] = tested on: HSV-1 KOS; assay: Binding of radiolabeled HSV-1 virions to Vero cells; format: cell-based, herpes simplex virus type 1; conditions: 7 μM; adsorption at 4° C. for 1 hour
# Description: Infectivity was inhibited by pre-treating HSV-1 virions with the amphipathic nucleoside derivatives before infection. These nucleosides may thus inhibit HSV-1 infectivity by, for example, preventing virion binding to cells. Alternatively, they may disrupt extracellular virions (i.e. have virucidal activities). […] The binding of HSV-1 virions pre-treated with dUY11 was assessed. FIG. 11 is a bar graph and photographic images showing HSV-1 binding (A) and infectivity (B). In parallel studies, [35]S-Methionine radiolabeled (approximately 4×10^5 cpm in 2.5×10^5 PFU) (A) or non-radiolabeled HSV-1 KOS (B) were pretreated with no drug (white bar), 7 μM dUY11 (striped bar), or 100 μg/ml heparin (black bar) for 5 minutes at 37° C. The samples were then cooled on ice. Inocula were diluted (1:20, 1:100) in ice-cold serum-free media supplemented with no drug, 7 μM dUY11, or 100 μg/ml heparin. Vero cells were infected with the so-pretreated virions at 4° C. for 1 hour, washed three times with ice-cold serum-free medium and lysed. Bound virions were quantified by liquid scintillation. Error bars represent ranges of three experiments (A).
# [7] = tested on: HSV-1; assay: High-affinity binding of HSV-1 virions, heparin competition; format: cell-based, herpes simplex virus type 1; conditions: 7 μM
# Description: dUY11 was next evaluated for its ability to affect high-affinity binding. FIG. 12 is a line graph showing competition of HSV-1 binding to cells by increasing concentration of heparin. […] Inocula were cooled on ice, and then diluted (1:10) in ice-cold serum-free media with or without 7 μM dUY11. Following 15 minute adsorption onto Vero cells, unbound virions were washed away. […] Virions stripped away by these washes were then quantified by liquid scintillation. Error bars represent ranges of two experiments. […] Therefore, the amphipathic nucleoside derivatives inhibit a step between high-affinity binding and viral DNA replication.
# [8] = tested on: HSV-1 KOS; assay: HSV-1 entry, RFP reporter under HSV-1 ICP0 IE promoter in Vero cells; format: cell-based, herpes simplex virus type 1; conditions: virions pretreated with 2 μM; 24 hpi
# [9] = tested on: HSV-2 strain 186; format: cell-based, HSV type 2; conditions: virions pretreated 5 minutes at 37° C.; Vero cells; read-out: IC50, infectivity of HSV-2 strain 186
# [10] = tested on: HSV-2 strain 333; format: cell-based, HSV type 2; conditions: virions pretreated 5 minutes at 37° C.; Vero cells; read-out: IC50, infectivity of HSV-2 strain 333
# [11] = tested on: VSV; format: cell-based, vesicular stomatitis virus; conditions: virions pretreated 5 minutes at 37° C.; Vero cells; read-out: IC50, infectivity of VSV
# [12] = tested on: SIN virus; format: cell-based, Sindbis virus; conditions: virions pretreated 5 minutes at 37° C.; Vero cells; read-out: IC50, infectivity of SIN
# [13] = tested on: HSV-1 KOS; assay: HSV-1 infectivity, Vero cells pretreated with compound, untreated virions; format: cell-based, herpes simplex virus type 1; conditions: IC50 5.4 μM versus 20 nM
# [14] = tested on: HSV-1 KOS; assay: Infectivity of progeny virions produced by treated infected Vero cells, plaque assay; format: cell-based, herpes simplex virus type 1
# Description: Virions produced by cells infected and treated with said compounds after infection should therefore not be as infectious as virions produced by untreated cells. FIG. 16A is a line graph showing the reduction in infectivity of virions produced by cells treated with amphipathic nucleoside derivatives for 24 hours and plotted against drug concentration. Vero cells were infected with HSV-1 KOS at a multiplicity of infection (MOI) of 3 PFU/cell. […] Cells were harvested at 24 hpi and viral infectivity was evaluated by standard plaque assays. Error bars represent ranges of 3 or more experiments. The virions produced in the presence of dUY11 were 8 orders of magnitude less infectious than those produced by untreated cells (FIG. 16A). The experiments were then repeated, but limiting the exposure of the infected cells to dUY11 to only 1 hour, immediately after removing the viral inoculum (FIG. 16B). […] Infected cells were then incubated without drug for 22 h, then the infectivity of the progeny virions was assessed. […] Therefore, dUY11 interacts with pre-existing cellular factors that are incorporated into virions, such as membrane lipids.
# [15] = tested on: HSV-2; assay: Mouse vaginal infection with HSV-2 virions exposed to compound; format: in vivo, mice
# From the text: In order to determine whether an amphipathic nucleoside derivative described herein inhibited viral transmission, a model vaginal infection with a sexually transmitted virus, HSV-2, was used. […] All five mice infected with 3×10^3 infectious virions, and three of the mice infected with 10^3, had to be euthanized between days 7 and 9 due to advanced illness (FIGS. 18E and 19A-B).
# [16] = Dispersion and stability in culture medium; format: physicochemical
# [17] = tested on: Vero cells
# [18] = tested on: HSV-1; assay: HSV-1 replication, cells treated only after infection with untreated virions; conditions: post-adsorption treatment of cells
# Description: HSV-1 inocula were incubated at 37° C. for 0 or 5 minutes with 2 μM of dUY11 (left half of each panel) or with DMSO vehicle (right half of each panel). Vero cells were infected with 0.5; 5; 50; 500; 5,000; or 50,000 PFU of treated HSV-1, as indicated in the cartoon (top panel), washed and overlaid with Dulbecco's Modified Eagle Media (DMEM) supplemented with 5% fetal bovine serum (FBS) and 2% methylcellulose (MC).
# Tests were performed to determine whether dUY11 preferentially targets the viral envelope or the cell membrane. […] HSV-1 KOS (200 PFU) were incubated with 0, 0.002, 0.007, 0.02, 0.07, 0.2, 0.7, 2, 7, 20 or 70 μM dUY11 for 5 minutes at 37° C. Vero cells were then infected with so-pretreated virions for 1 hour, washed and overlaid with medium supplemented with 5% FBS and 2% MC (▪). Alternatively, untreated inocula were used to infect untreated Vero cells (▴) or Vero cells pretreated at 37° C. for up to 60 minutes with 0, 2, 7, 20 or 70 μM dUY11 (●). Non-pretreated infected cells were then overlayed with medium supplemented with 5% FBS and 2% MC supplemented with 0, 2, 7, 20 or 70 μM dUY11. […] Error bars represent ranges of three or more experiments.
# [19] = Human alphaherpesvirus 1, Vero, Table 1, read-out: IC50 (μM) on infectivity of HSV-1 on Vero cells
# [20] = 10^3 or 3×10^3 HSV-2 virions exposed to 70 μM, vaginal infection
compound,measurement,setting,value
"O=c1[nH]c(=O)n([C@H]2CC[C@@H](CO)O2)cc1C#Cc1ccc2c3cccc4cccc(c5cccc1c52)c43 [ddUY11, 5-(Perylen-3-ylethynyl)-2′,3′-dideoxyuridine]",IC50,[1]; [19],0.045 µM
same,potency compared with dUY11,[1],approximately as potent as dUY11
same,cytotoxicity (in words),[2],neither were cytotoxic
O=c1[nH]c(=O)n([C@H]2C[C@H](O)[C@@H](CO)O2)cc1C#Cc1ccc2c3cccc4cccc(c5cccc1c52)c43 [dUY11],inhibition of HSV-1 DNA replication (intracellular viral DNA),[3],does not inhibit HSV-1 DNA replication; also recorded: does not inhibit viral DNA replication at any time tested
same,inhibition of release of HSV-1 DNA (extracellular viral DNA),[4],does not inhibit the release of progeny HSV-1 DNA
same,time to inhibit HSV-1 infectivity by 50%,"[1]; 20 nM (IC50) at 37° C., Vero cells",220 s
same,infectivity with virions pretreated with 700 nM,"[1]; 700 nM, Vero cells",fully inhibited
same,"effect on viral infectivity, plaque assay","[1]; 2 μM, inocula incubated 0 or 5 min at 37° C.",inhibits viral infectivity
same,infectivity in parallel to binding study,[1]; 7 μM,did abrogate infectivity
same,IC50,"[1]; Table 1, read-out: IC50 (μM) on infectivity of HSV-1 on Vero cells",0.05 µM
same,"maximum inhibition, virion pretreatment",[1]; up to 70 μM,100%
same,IC50,"[1]; virions pretreated 5 minutes at 37° C., Vero cells, calculated graphically, read-out: IC50, HSV-1 infectivity",0.02 µM and 0.025 µM and 0.024 µM
same,infectivity with virions pretreated with 700 nM,[5]; 700 nM,fully inhibited
same,IC50,[5]; virions pretreated 5 minutes at 37° C.,20 nM
same,inhibition of HSV-1 virion binding to cells,[6],did not inhibit virion binding; also recorded: does not inhibit HSV-1 binding
same,virucidal activity,[7],not virucidal
same,block of low- or high-affinity binding,"[7]; heparin washes 0 to 1,000 μg/ml",does not block either low- or high-affinity binding; also recorded: does not block high-affinity binding
same,HSV-1 entry (RFP expression in reporter cells),[8],no detectable fluorescence; also recorded: inhibits HSV-1 entry
same,IC50,[9],49 nM
same,IC50,[10],65 nM
same,IC50,[11],6 nM
same,IC50,[12],58 nM
same,fold higher concentration for cell pretreatment versus virion pretreatment,[13],270 fold
same,IC50,[14]; cells exposed for only 1 hour,3900 nM
same,reduction in infectivity of virions budded from treated cells,[14]; cells exposed for only 1 hour after removing inoculum,6 orders of magnitude
same,effect on infectivity of progeny virions (in words),[14]; cells treated for 24 or only 1 hours,inhibits the infectivity of progeny virions
same,reduction in infectivity of virions produced by treated cells,"[14]; cells treated for 24 hours after infection, up to 2 μM",8 orders of magnitude
same,mice shedding detectable infectious virus,[15]; [20],None of the ten mice
same,mice showing clinical signs of infection,[15]; [20],None of the ten mice
same,protection of mice from vaginal (genital) infection,[15]; virions exposed to 70 μM,protects mice from genital infection; also recorded: protects from vaginal infection with HSV-2; also recorded: non-infectious to mice
same,stability in medium,[16]; 150 μM,not stable in medium for long periods
same,concentration at which homogeneously dispersed in media,[16]; culture media,"up to 70,000 nM"
same,cytotoxicity (in words),[17],non-cytotoxic
same,safety index (SI),[2]; 50% cytotoxicity not reached,"> 7,500"
same,effect on viral replication when added after infection,[18],no effect on viral replication; also recorded: no effect on HSV-1 replication
"O=c1[nH]c(=O)n([C@@H]2O[C@H](CO)C(O)C2O)cc1C#Cc1ccc2c3cccc4cccc(c5cccc1c52)c43 (some centres unmarked) [aUY11, 5-(Perylen-3-ylethynyl)-arabino-uridine]",IC50,[1]; [19],0.075 µM
same,potency compared with dUY11,[1],approximately as potent as dUY11
same,cytotoxicity (in words),[2],neither were cytotoxic

# Source: patent US8633308B2, “Compounds for preventing or treating viral infections and methods of use thereof” (The Governors of The University of Alberta, priority 2007, dated 2014)
